“Also recorded” adds a separate entry of the source.
Assays:
[1] = assay type: physicochemical
Experimental: A droplet containing pyranine (10 mM) and DPhPC (1 mg mL^−1) in 1 M KCl, 10 mM Tris·HCl, pH 7.0, was used to form a bilayer with another droplet containing DPhPC (1 mg mL^−1) but no pyranine in the same buffer. The droplets were incubated in a mixture of hexadecane/silicone oil AR20 (1:1 v/v) containing DPhPC (1 mg mL^−1).
An Ag/AgCl electrode, the cis electrode, was inserted into one droplet, and attached to the grounded end of a patch-clamp headstage (Axon Instruments, USA). A second Ag/AgCl electrode (trans) inserted in another droplet was connected to the active end. A positive potential causes the flow of anions from the cis to the trans electrode and of cations from trans to cis. The current was amplified by using a patchclamp amplifier (Axopatch 200B, Axon Instruments, USA), filtered with a low-pass Bessel filter (80 dB/decade) with a corner frequency of 1 kHz, and digitized with a Digidata 1322 A/D converter (Axon Instruments) at a sampling frequency of 20 kHz. Post-acquisition, the data were low-pass filtered at 100 Hz to 400 Hz. The droplet assembly, electrodes, and the headstage were enclosed in a metal box to minimize electrical noise.

[2] = biological target: αHL pores (Staphylococcus aureus, UniProt P09616)
αHL pores, sequence (P09616 27-319 limits assumed): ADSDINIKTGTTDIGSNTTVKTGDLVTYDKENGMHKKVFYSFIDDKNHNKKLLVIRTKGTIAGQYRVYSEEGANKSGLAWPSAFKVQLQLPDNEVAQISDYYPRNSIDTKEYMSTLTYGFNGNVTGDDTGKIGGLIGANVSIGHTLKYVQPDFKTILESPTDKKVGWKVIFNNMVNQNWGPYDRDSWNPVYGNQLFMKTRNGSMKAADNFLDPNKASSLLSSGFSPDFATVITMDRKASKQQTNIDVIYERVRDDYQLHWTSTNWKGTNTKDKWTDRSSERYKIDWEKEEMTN

[3] = biological target: αHL (Staphylococcus aureus, UniProt P09616); assay type: biochemical
αHL, sequence (P09616 27-319 limits assumed): as above

Molecule	effect on bilayer stability ([1]; current recordings, pyranine 10 mM)	time the bilayer was stable (capacitance monitoring) ([1]; one droplet with pyranine 10 mM, DPhPC 1 mg mL^-1, hexadecane/silicone oil AR20 1:1)	dye transfer through bilayers of the droplet network [2]	time of influx into droplet 4 (fastest influx) [2]	time until colour change in all droplets of the second layer [2]	time until αHL-containing droplets turned green [2]	effect on ionic current / electrical signal through αHL pores [3]
O=S(=O)(O)c1cc(O)c2ccc3c(S(=O)(=O)O)cc(S(=O)(=O)O)c4ccc1c2c34 [pyranine, 8-hydroxypyrene-1,3,6-trisulfonic acid]	did not compromise bilayer stability	at least 90 min	only through droplets containing αHL	≤ 13 h	4 days	~70 h	–
xylene cyanol	–	–	did not show any transfer; also recorded: No transfer	–	–	–	–
γ-cyclodextrin [γCD]	–	–	–	–	–	–	intermittently interrupted; also recorded: interrupted by γCD blockades

From US12073966B2 (priority 2012, dated 2024)
